Results from patent US20070254882A1, “Sulfamide Derivatives and Pharmaceutical Composition for Upregulation of Lipid Metabolism Comprising Same” (CRYSTAL GENOMICS, INC., priority 2004, published 2007).

Columns and labels:
human PPAR α [1] = molecular target: T1, human PPAR α (Homo sapiens, UniProt Q07869); test: Exogeneous PPAR α agonist assay (GAL4 DNA binding domain/PPAR α ligand binding domain, luciferase) in 293T cells; assay type: cell-based; parameters: scale not given here; conditions: 25 μM compound, 48 hours, luciferase activity increase relative to the control
T1 construct: expressed in transfected cells; host or cells: HepG2 (ATCC HB-8065) or 293T cells (ATCC CRL-1573)
T1 sequence (Q07869 239-466 limits assumed): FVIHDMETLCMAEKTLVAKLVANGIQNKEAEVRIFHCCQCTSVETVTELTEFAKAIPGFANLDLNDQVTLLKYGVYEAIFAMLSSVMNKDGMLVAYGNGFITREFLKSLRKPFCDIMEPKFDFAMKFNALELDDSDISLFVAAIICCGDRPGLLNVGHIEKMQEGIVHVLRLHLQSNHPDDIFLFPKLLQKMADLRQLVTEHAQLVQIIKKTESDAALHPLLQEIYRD
Description: (§1) Step 1) Exogeneous PPAR α Agonist Assay
(§2) Cross-activation assay of the compounds of Examples 1 to 134 against human PPAR α was carried out using a DNA construct of PPAR α including its ligand binding domain and GAL4 DNA binding domain (Sher et al., Biochemistry 32, 5598-5604, 1993) to analyze whether any of the compounds binds to the ligand binding domain of PPAR α expressed by the construct to affect the PPAR α activity. When the GAL4 DNA binding domainm which is fused with PPAR α ligand binding domain, binds to UAS (upstream activation sequence) of firefly-luciferase, the luciferase is expressed. Therefore, the effect of each of the compounds of Examples on PPAR α activation can be evaluated by analyzing the activation of luciferase.
(§3) Specifically, 2×10^4 of HepG2 (ATCC HB-8065) or 293T cells (ATCC CRL-1573) were aliquotted into each well of a 96-well plate and cultured for overnight at 37° C. in a CO2 incubator (culture condition: DMEM, 10% FBS and 1% antibiotics).
(§4) The transformation of PPAR α DNA was traced as follows. First, a mixture of the following ingredients in amounts per well; Solution A (Promega) containing 50 ng of full length human PPAR α DNA, 50 ng of firefly-luciferase construct, 5 ng of Renilla-luciferase construct, 1.0 μl of PLUS™ reagent, and 8.3 μl of a serum-free medium containing no antibiotics; was prepared and kept at room temperature for 15 min. Solution B, which contained 0.5 μl of Lipofectamine™ reagent and 9.5 μl of serum-free medium without antibiotics per well, and Solution C, which contained 50 μl of serum-free medium per well), were prepared. Solutions A, B and C were mixed together to prepare lipofectamin-DNA complex, and the mixture was kept at room temperature for 15 min. Single layer of cells on each well of a 96-well plate were washed with serum-free DMEM, 70 μl of lipofectamine-DNA complex prepared above was added thereto, the plate was incubated at 37° C. in a 5% CO2 incubator for 3 hours to transform the cells, and […] of a diluted solution of each of the compounds of Examples 1 to 134 per well was added to each well to a final concentration 25 μM, and incubated at 37° C. in a CO2 incubator for 48 hours. Then, the medium was removed, 50 μl of passive lysis buffer (Promega) was added thereto, and the plate was shook at room temperature for 20 min to lysis cells. 40 μl of Luciferase Assay reagent of Dual Luciferase Kit […] per 20 μl of cell lysis buffer was added to the plate, followed by reacting at 20° C. for 8 seconds, and 40 μl of Stop & Glo reagent (Promega) as a stop solution was added thereto to quench the reaction. The luminescence intensities of F-luciferase and R-luciferase were measured with MicroLumat Plus (Berthord Technology).

human PPAR α [2] = molecular target: T1, human PPAR α; test: Exogeneous PPAR α agonist assay (GAL4 DNA binding domain/PPAR α ligand binding domain, luciferase) in HepG2 cells; assay type: cell-based; conditions: 25 μM compound, 48 hours, luciferase activity increase relative to the control
Description: as §1, §2, §3, §4

SMILES | Activity at 25 μM Step 1 293T cell (human PPAR α [1]) | Activity at 25 μM Step 1 HepG2 cell (human PPAR α [2])
Cc1ccc(-c2nc(COc3cccc(CN([C@@H](C)C(=O)O)S(=O)(=O)N(C)C)c3)c(C)o2)cc1 [Example 124, (S)-2-[N—(N,N-dimethylamino)sulfonyl-N-[3-[(5-methyl-2-p-tolyloxazol-4-yl)methoxy]benzyl]amino]propionic acid] | 5 | 40
Cc1ccc(-c2nc(CCOc3ccc(CN(CC(=O)O)S(=O)(=O)N(C)C(C)C)cc3)c(C)o2)cc1 [Example 102, [N—(N-isopropyl-N-methylamino)sulfonyl-N-[4-[2-[2-(4-methylphenyl)-5-methyloxazol-4-yl]ethoxy]benzyl]amino]acetic acid] | 4 | 46
Cc1oc(-c2ccc(C(F)(F)F)cc2)nc1CCOc1cccc(CN(CC(=O)O)S(=O)(=O)N2CCOCC2)c1 [Example 87, [N-(morpholinyl)sulfonyl-N-[3-[2-[2-(4-trifluoromethylphenyl)-5-methyloxazol-4-yl]ethoxy]benzyl]amino]acetic acid] | 1 | 
Cc1oc(-c2ccc(C(F)(F)F)cc2)nc1CCOc1ccc(CN(CC(=O)O)S(=O)(=O)N2CCCc3ccccc32)cc1 [Example 122, [N-(1,2,3,4-tetrahydroquinolinyl)sulfonyl-N-[4-[2-[2-(4-trifluoromethylphenyl)-5-methyloxazol-4-yl]ethoxy]benzyl]amino]acetic acid] | 2 | 
Cc1oc(-c2ccc(C(F)(F)F)cc2)nc1COc1cccc(CN(CC(=O)O)S(=O)(=O)N2CCN(C)CC2)c1 [Example 27, [N-(4-methyl-1-piperazinyl)sulfonyl-N-[3-[[2-(4-trifluoromethylphenyl)-5-methyloxazol-4-yl]methoxy]benzyl]amino]acetic acid] | 1 | 
Cc1nc(-c2ccc(C(F)(F)F)cc2)oc1COc1cccc(CN(CC(=O)O)S(=O)(=O)N2CCOCC2)c1 [Example 29, [N-(morpholinyl)sulfonyl-N-[3-[[2-(4-trifluoromethylphenyl)-4-methyloxazol-5-yl]methoxy]benzyl]amino]acetic acid] | 2 | 
Cc1ccc(-c2nc(COc3cccc(CN(CC(=O)O)S(=O)(=O)N4CCc5ccccc54)c3)c(C)o2)cc1 [Example 31, [N-(indolinyl)sulfonyl-N-[3-[[2-(4-methylphenyl)-5-methyloxazol-4-yl]methoxy]benzyl]amino]acetic acid] | 3 | 
Cc1oc(-c2ccc(C(F)(F)F)cc2)nc1COc1cccc(CN(CC(=O)O)S(=O)(=O)N2CCCc3ccccc32)c1 [Example 36, [N-(1,2,3,4-tetraquinolinyl)sulfonyl-N-[3-[[2-(4-trifluoromethylphenyl)-5-methyloxazol-4-yl]methoxy]benzyl]amino]acetic acid] | 2 | 
Cc1ccc(-c2nc(COc3cccc(CN(CC(=O)O)S(=O)(=O)N4CCCc5ccccc54)c3)c(C)o2)cc1 [Example 35, [N-(1,2,3,4-tetrahydroquinolinyl)sulfonyl-N-[3-[[2-(4-methylphenyl)-5-methyloxazol-4-yl]methoxy]benzyl]amino]acetic acid] | 2 | 
Cc1oc(-c2ccc(C(F)(F)F)cc2)nc1COc1cccc(CN(CC(=O)O)S(=O)(=O)N2CCCC2)c1 [Example 25, [N-(pyrrolidinyl)sulfonyl-N-[3-[[2-(4-trifluoromethylphenyl)-5-methyloxazol-4-yl]methoxy]benzyl]amino]acetic acid] | 2 | 
Cc1oc(-c2ccccc2)nc1COc1cccc(CN(CC(=O)O)S(=O)(=O)N2CCCc3ccccc32)c1 [Example 34, [N-(1,2,3,4-tetrahydroquinolinyl)sulfonyl-N-[3-[(2-phenyl-5-methyloxazol-4-yl)methoxy]benzyl]amino]acetic acid] | 2 | 
Cc1nc(-c2ccc(C(F)(F)F)cc2)oc1COc1cccc(CN(CC(=O)O)S(=O)(=O)N2CCCC2)c1 [Example 26, [N-(pyrrolidinyl)sulfonyl-N-[3-[[2-(4-trifluoromethylphenyl)-4-methyloxazol-5-yl]methoxy]benzyl]amino]acetic acid] | 2 | 
Cc1oc(-c2ccccc2)nc1CCOc1ccc(CN(CC(=O)O)S(=O)(=O)N2CCCc3ccccc32)cc1 [Example 120, [N-(1,2,3,4-tetrahydroquinolinyl)sulfonyl-N-[4-[2-(2-phenyl-5-methyloxazol-4-yl)ethoxy]benzyl]amino]acetic acid] | 2 | 
Cc1ccc(-c2nc(CCOc3ccc(CN(CC(=O)O)S(=O)(=O)NC(C)(C)C)cc3)c(C)o2)cc1 [Example 100, [N—(N-t-butylamino)sulfonyl-N-[4-[2-[2-(4-methylphenyl)-5-methyloxazol-4-yl]ethoxy]benzyl]amino]acetic acid] | 2 | 

The remaining lines, values ahead:

Activity at 25 μM Step 1 293T cell (human PPAR α [1]) | Activity at 25 μM Step 1 HepG2 cell (human PPAR α [2]) | SMILES
3 | 54 | CCN(CC)S(=O)(=O)N(CC(=O)O)Cc1cccc(OCc2nc(-c3ccc(C(F)(F)F)cc3)oc2C)c1 [Example 7, [N—(N,N-diethylamino)sulfonyl-N-[3-[[2-(4-trifluoromethylphenyl)-5-methyloxazol-4-yl]methoxy]benzyl]amino]acetic acid]
2 | 30 | Cc1ccc(-c2nc(CCOc3cccc(CN(CC(=O)O)S(=O)(=O)N(C)C(C)C)c3)c(C)o2)cc1 [Example 64, [N—(N-isopropyl-N-methylamino)sulfonyl-N-[3-[2-[2-(4-methylphenyl)-5-methyloxazol-4-yl]ethoxy]benzyl]amino]acetic acid]
3 | 34 | C#CCN(C)S(=O)(=O)N(CC(=O)O)Cc1cccc(OCCc2nc(-c3ccc(C(F)(F)F)cc3)oc2C)c1 [Example 70, [N—(N-methyl-N-propargylamino)sulfonyl-N-[3-[2-[2-(4-trifluoromethylphenyl)-5-methyloxazol-4-yl]ethoxy]benzyl]amino]acetic acid]
4 | 31 | Cc1oc(-c2ccc(C(F)(F)F)cc2)nc1COc1cccc(CN(CC(=O)O)S(=O)(=O)N(C)C(C)C)c1 [Example 8, [N—(N-isopropyl-N-methylamino)sulfonyl-N-[3-[[2-(4-trifluoromethylphenyl)-5-methyloxazol-4-yl]methoxy]benzyl]amino]acetic acid]
1 |  | Cc1oc(-c2ccc(C(F)(F)F)cc2)nc1CCOc1cccc(CN(CC(=O)O)S(=O)(=O)NC(C)(C)C)c1 [Example 66, [N—(N-t-butylamino)sulfonyl-N-[3-[2-[2-(4-trifluoromethylphenyl)-5-methyloxazol-4-yl]ethoxy]benzyl]amino]acetic acid]
2 |  | Cc1oc(-c2cccs2)nc1COc1ccc(CN(CC(=O)O)S(=O)(=O)N(C)c2ccccc2)cc1 [Example 48, [N—[(N-methyl-N-phenyl)amino]sulfonyl-N-[4-[[2-(thiophen-2-yl)-5-methyloxazol-4-yl]methoxy]benzyl]amino]acetic acid]
2 |  | Cc1oc(-c2cccs2)nc1CCOc1cccc(CN(CC(=O)O)S(=O)(=O)N(C)C)c1 [Example 72, [N—(N,N-dimethylamino)sulfonyl-N-[3-[2-[2-(thiophen-2-yl)-5-methyloxazol-4-yl]ethoxy]benzyl]amino]acetic acid]
1 |  | Cc1ccc(-c2nc(CCOc3cccc(CN(CC(=O)O)S(=O)(=O)N4CCN(C)CC4)c3)c(C)o2)cc1 [Example 88, [N-(4-methyl-1-piperazinyl)sulfonyl-N-[3-[2-[2-(4-methylphenyl)-5-methyloxazol-4-yl]ethoxy]benzyl]amino]acetic acid]
